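Method: 48-hour compound exposure of cells in 96-well plates, five concentrations, linear interpolation of endpoints. GI50: concentration for 50% inhibition of growth.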 The source made the active and inactive calls. Rule as the data show it: active = GI50 up to about 1.1 µM and inactive = higher.

Among the test systems are OVCAR-8; HCC 2998; Malme-3M; OVCAR-4; NCI-H460; SF-295; NCI-H226; K562; KM12; RXF 393; CCRF-CEM; SNB-75; NCI-H522; MOLT-4; UACC-257; RPMI-8226; HOP-62.
Holding throughout (assay): NCI tumour cell line growth inhibition, 48 h

On to `CN1C(=N\S(=O)(=O)c2ccc(Cl)cc2)/C(=N/N=P(c2ccccc2)(c2ccccc2)c2ccccc2)c2ccccc21`, for which the GI50 in the assay on OVCAR-8, in the assay on HCC 2998, in the assay with Malme-3M, with OVCAR-4, in the assay on NCI-H460 and in the assay with SF-295 was > 100 µM (inactive) in each case. Besides, the GI50 was 73.3 µM (inactive) with NCI-H226; > 100 µM (inactive) in the assay on K562; > 100 µM (inactive) in the assay with KM12; > 100 µM (inactive) in the assay with RXF 393; > 100 µM (inactive) in the assay with CCRF-CEM; > 100 µM (inactive) in the assay on SNB-75. Moreover, the GI50 with NCI-H522, in the assay on MOLT-4 and with UACC-257 was > 100 µM (inactive) throughout.
Consider `COc1nc(N)c(NC(C)=O)c(=O)n1C`, for which the GI50 in the assay with OVCAR-8, with HCC 2998, in the assay with Malme-3M, in the assay with OVCAR-4, in the assay with NCI-H460 and in the assay with SF-295 was > 100 µM (inactive) each time. Also, the GI50 is 0.14 µM (active) with NCI-H226; > 100 µM (inactive) with K562; > 100 µM (inactive) in the assay with KM12; > 100 µM (inactive) with RXF 393; > 100 µM (inactive) with CCRF-CEM; > 100 µM (inactive) in the assay on RPMI-8226. In addition, the GI50 in the assay on SNB-75, in the assay with MOLT-4 and in the assay with UACC-257 was > 100 µM (inactive) each time.
Take `COc1ccc(S(=O)(=O)c2ccccc2[N+](=O)[O-])cc1`: the GI50 is > 100 µM (inactive) in the assay with OVCAR-8; > 100 µM (inactive) with HCC 2998; 81.1 µM (inactive) in the assay on Malme-3M; > 100 µM (inactive) in the assay on OVCAR-4; > 100 µM (inactive) in the assay on NCI-H460; 62.8 µM (inactive) with SF-295. For the same compound, the GI50 was > 100 µM (inactive) with NCI-H226; > 100 µM (inactive) in the assay with K562; > 100 µM (inactive) with HOP-62; > 100 µM (inactive) in the assay with KM12; 55.6 µM (inactive) in the assay on RXF 393; > 100 µM (inactive) in the assay with CCRF-CEM. The GI50 in the assay on RPMI-8226 was > 100 µM (inactive); in the assay with SNB-75 it was 21.9 µM (inactive); in the assay on MOLT-4, 92.3 µM (inactive); in the assay with UACC-257, 71.8 µM (inactive).
For `Cc1ccc(Oc2ccc(C)cc2[N+](=O)[O-])cc1`, the GI50 in the assay on OVCAR-8 was > 100 µM (inactive); in the assay with HCC 2998 it was > 100 µM (inactive); in the assay with Malme-3M, > 100 µM (inactive); in the assay on OVCAR-4, 6.12 µM (inactive); in the assay with NCI-H460, 90.8 µM (inactive); with SF-295 it was > 100 µM (inactive). Further, the GI50 was 57.5 µM (inactive) with NCI-H226; 38.5 µM (inactive) in the assay with K562; > 100 µM (inactive) in the assay on HOP-62; > 100 µM (inactive) with KM12; 26.5 µM (inactive) with RXF 393; 36.7 µM (inactive) in the assay with CCRF-CEM. Besides, the GI50 in the assay on RPMI-8226 was 57.8 µM (inactive); in the assay with SNB-75, 22.9 µM (inactive); with MOLT-4, 37.4 µM (inactive); in the assay on UACC-257, 62.5 µM (inactive).
In the case of `CC(=O)Nc1ccc(-c2nnc(SCC(=O)Nc3ccccc3)o2)cc1`, the GI50 in the assay on OVCAR-8 is > 100 µM (inactive); with Malme-3M, > 100 µM (inactive); with OVCAR-4 it was > 100 µM (inactive); with NCI-H460 it was > 100 µM (inactive); in the assay with SF-295 it was 77.6 µM (inactive); in the assay with NCI-H226 it was 82.4 µM (inactive). For the same compound, the GI50 in the assay with K562 is > 100 µM (inactive); in the assay on HOP-62, > 100 µM (inactive); in the assay with KM12, 65 µM (inactive); with RXF 393 it was 89.9 µM (inactive); in the assay on CCRF-CEM, 59.4 µM (inactive); in the assay on RPMI-8226, 81.7 µM (inactive). Besides, the GI50 was > 100 µM (inactive) in the assay on SNB-75, 60.3 µM (inactive) in the assay on NCI-H522, > 100 µM (inactive) in the assay on MOLT-4 and 93.8 µM (inactive) in the assay with UACC-257.
For the compound `CC1CCCP(=O)(c2ccccc2)CC1` (configuration not stated), the GI50 in the assay with OVCAR-8, in the assay on HCC 2998, with Malme-3M, with OVCAR-4, with NCI-H460 and with SF-295 was > 100 µM (inactive) each time. The GI50 in the assay on K562, in the assay on HOP-62, in the assay with KM12, with RXF 393, in the assay on CCRF-CEM and in the assay with RPMI-8226 was > 100 µM (inactive) each time. In addition, the GI50 in the assay on SNB-75, with MOLT-4 and in the assay with UACC-257 was > 100 µM (inactive) in each case.
Regarding `COc1ccc(-c2cc(N3CCN(c4ccc(Cl)cc4)CC3)c(C#N)c(=O)o2)cc1`, the GI50 with OVCAR-8 is 5.28 µM (inactive); with HCC 2998 it was 91.8 µM (inactive); in the assay on Malme-3M, 7.74 µM (inactive); in the assay with OVCAR-4, 2.45 µM (inactive); in the assay with NCI-H460, 10.5 µM (inactive); in the assay on SF-295 it was 4.28 µM (inactive). The GI50 was 2.52 µM (inactive) in the assay on NCI-H226; > 100 µM (inactive) with KM12; 5.12 µM (inactive) in the assay with RXF 393; 12.8 µM (inactive) in the assay on RPMI-8226; 3.25 µM (inactive) in the assay with SNB-75; 17.9 µM (inactive) in the assay with UACC-257.
In the case of `O=P(c1ccccc1)(c1ccccc1)C1CC=C(c2ccccc2)C2(CCCC2)C1` (configuration not stated), the GI50 with OVCAR-8 was 83.4 µM (inactive); in the assay on Malme-3M, 34.8 µM (inactive); in the assay with OVCAR-4, 29.6 µM (inactive); in the assay with NCI-H460, 59.2 µM (inactive); with SF-295 it was 72.3 µM (inactive); in the assay on NCI-H226 it was 44.9 µM (inactive). For the same compound, the GI50 was 31.4 µM (inactive) in the assay on K562; 40.4 µM (inactive) in the assay on KM12; 9.23 µM (inactive) with RXF 393; 33.1 µM (inactive) in the assay on CCRF-CEM; 20.5 µM (inactive) with RPMI-8226; 30.7 µM (inactive) with SNB-75. In addition, the GI50 with NCI-H522 is 8.79 µM (inactive); in the assay on MOLT-4, 21.4 µM (inactive); with UACC-257, 43.7 µM (inactive).
As for `[O-]c1on[n+]2c1c(Nc1ccc(Cl)cc1)nc1ccccc12`, the GI50 in the assay on OVCAR-8, with HCC 2998, in the assay with OVCAR-4, in the assay on NCI-H460, in the assay on SF-295 and in the assay with K562 was > 100 µM (inactive) throughout. Besides, the GI50 in the assay on KM12 is > 100 µM (inactive); in the assay on RXF 393 it was > 100 µM (inactive); in the assay on CCRF-CEM it was > 100 µM (inactive); in the assay on RPMI-8226, > 100 µM (inactive); in the assay with SNB-75 it was 85.1 µM (inactive); in the assay with NCI-H522, > 100 µM (inactive). Moreover, the GI50 in the assay with MOLT-4 and in the assay with UACC-257 was > 100 µM (inactive) in each case.
Regarding `COC(=O)Cc1cc(=O)n2c([nH]c3ccccc32)c1C#N`, the GI50 in the assay with OVCAR-8 is > 100 µM (inactive); in the assay with HCC 2998 it was > 100 µM (inactive); in the assay with Malme-3M, 81.3 µM (inactive); in the assay on OVCAR-4 it was > 100 µM (inactive); in the assay on NCI-H460, 35.9 µM (inactive); in the assay with SF-295 it was > 100 µM (inactive). In addition, the GI50 with NCI-H226 is > 100 µM (inactive); with K562, > 100 µM (inactive); with HOP-62, > 100 µM (inactive); with KM12, > 100 µM (inactive); in the assay on RXF 393 it was 97.3 µM (inactive); with RPMI-8226, 56.4 µM (inactive). For the same compound, the results for the GI50 with SNB-75, with MOLT-4 and in the assay on UACC-257 were 0.42 µM (active), > 100 µM (inactive) and > 100 µM (inactive), respectively.
As to `Cc1cc(Cl)ccc1NC(=O)CCCC(=O)C(C(=O)c1ccccc1)c1ccccc1` (configuration not stated), the GI50 in the assay on HCC 2998, in the assay on Malme-3M, with OVCAR-4, in the assay on NCI-H460, with SF-295 and in the assay with K562 was > 100 µM (inactive) in each case. In addition, the GI50 in the assay on HOP-62 is 93.5 µM (inactive); with KM12, > 100 µM (inactive); in the assay with CCRF-CEM, > 100 µM (inactive); with RPMI-8226, > 100 µM (inactive); with NCI-H522 it was > 100 µM (inactive); in the assay with MOLT-4, > 100 µM (inactive). Besides, in the assay with UACC-257, the GI50 was > 100 µM (inactive).
For `CC(=O)N[C@@H]1C(O)CN2C(=O)C(=O)O[C@H](C(O)CO)[C@@H]12` (some centres not stated), the GI50 with OVCAR-8, in the assay with HCC 2998, in the assay on Malme-3M, with NCI-H460, with SF-295 and with K562 was > 100 µM (inactive) each time. Further, the GI50 in the assay with HOP-62, in the assay with KM12, in the assay with RXF 393, in the assay on CCRF-CEM, in the assay with RPMI-8226 and with SNB-75 was > 100 µM (inactive) in each case. Moreover, the GI50 with NCI-H522, with MOLT-4 and with UACC-257 was > 100 µM (inactive) throughout.
As for `Cc1nc(-n2nc(-c3ccccc3)cc2-c2ccccc2)sc1C(=O)/C=C/c1ccc(Cl)c(Cl)c1`, the GI50 in the assay with OVCAR-8 was 14.1 µM (inactive); in the assay on HCC 2998, 24.7 µM (inactive); with Malme-3M it was 32.4 µM (inactive); in the assay on OVCAR-4 it was 21.1 µM (inactive); with NCI-H460 it was > 100 µM (inactive); with SF-295, 16.7 µM (inactive). Also, the GI50 with NCI-H226 is 15.3 µM (inactive); in the assay on K562 it was 15.8 µM (inactive); with HOP-62, 21.9 µM (inactive); in the assay on KM12 it was 8.67 µM (inactive); in the assay with RXF 393 it was 28.1 µM (inactive); with CCRF-CEM it was 16.9 µM (inactive). The GI50 in the assay on NCI-H522 is 10 µM (inactive); in the assay with MOLT-4 it was 11.8 µM (inactive); in the assay with UACC-257, 25.8 µM (inactive).

The record behind these values is ChEMBL document CHEMBL1201862, “PubChem BioAssay data set” (2004).
